# Experimental data taken from patent publication US10487092B2, “Pyrazolopyridinamines as MKNK1 and MKNK2 inhibitors” (BAYER PHARMA AKTIENGESELLSCHAFT, priority 2014, dated 2019).
# “Also recorded” adds a separate entry of the source.
# Assays:
# human full-length MKNK1 = human full-length MKNK1 (Homo sapiens (Human), UniProt Q9BUB5, T344D); assay: MKNK1 kinase high ATP assay (TR-FRET); assay type: biochemical; conditions: high ATP (2 mM), 15 min preincubation with enzyme; read-out: MKNK1 IC50
# Method in brief: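 GST-tagged full-length MKNK1 (aa 1–424, T344D; insect-cell expressed) preincubated 15 min with compound, then reacted 30 min at 22 °C with 2 mM ATP and 0.06 μM biotinylated peptide (final) in HEPES pH 7.5 buffer. Phosphopeptide detected by TR-FRET 665/620 ratio, normalized to no-inhibitor and no-enzyme controls.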
# [1] = test system: secretion of TNF-α in human PBMCs; assay: In vitro IL-1β-induced cytokine (TNF-α) secretion of human PBMCs; assay type: cell-based; conditions: for IC50: PBMC, human PBMCs stimulated with 20 ng/ml IL-1β for 24 hours
# Text: In Vitro IL-1β (Interleukin-1 beta, IL-1b)-Induced Cytokine Secretion of Human PBMCs (Peripheral Blood Mononuclear Cells)
# The effect of the chemical compounds on the induced cytokine secretion of human PBMCs has been investigated. Here, the cytokine secretion has been induced by IL-1β which binding to its receptors leads to the activation of the MKNK signaling pathway.
# (§1) Human PBMCs have been isolated from anti-coagulated human whole blood donated from healthy volunteers by pre-filling Leucosep tubes with ficoll-paque (15 ml, Biochrom, order ID: L6115) and adding 20 ml whole blood. After centrifugation of the blood at 800 g for 15 min at room temperature (RT) plasma including thrombocytes has been discarded. PBMCs were transferred to a new falcon tube, washed with PBS (phosphate-buffered saline) at 250 g for 10 min at RT and resuspended in complete medium [RPMI 1640, without L-glutamine (PAA, order ID: E15-039), 10% FCS; 50 U/ml Penicillin, 50 μg/ml Streptomycin (PAA, order ID: P11-010) and 1% L-glutamine (Sigma, order ID. G7513)]. The assay was performed in a 96-well plate at a cell density of 2.5×10^5 cells/well as triplicates. The compounds were serially diluted in DMSO and added to the PBMCs at a range of 3×10^−9 M to 1×10^−5M with a final concentration of 0.4% DMSO, respectively. Treatment of PBMCs with 0.4% DMSO was used as control. After 30 min of incubation, PBMCs were stimulated with 20 ng/ml IL-1β (R&D, order ID: 201-LB CF) for 24 hours. Cell viability was measured using the CellTiter-Glo Luminescent Assay (Promega, order ID: G7571) following the manufacturers protocol. The amount of secreted TNF-α (tumor necrosis factor-alpha) in the supernatant was determined using the Human Prolnflammatory 9-Plex (MSD, order ID: K15007B) according to manufacturer's instruction. The inhibitory activity was determined as the relation to the control in percent. IC50 values were calculated using the 4-parameter logistic model.
# [2] = test system: human peripheral blood mononuclear cells; assay: Cell viability of human PBMCs (CellTiter-Glo Luminescent Assay); assay type: cell-based; conditions: IL-1β stimulated, 24 hours
# Experimental: as §1, with “The compounds were serially diluted in DMSO and added to the PBMCs at a range of 3×10^−9 M to 1×10^−5M with a final concentration of 0.4% DMSO, respectively. Treatment of PBMCs with 0.4% DMSO was used as control. After 30 min of incubation, PBMCs were stimulated with 20 ng/ml IL-1β (R&D, order ID: 201-LB CF) for 24 hours.” left out
# human full-length MKNK1, sequence (Q9BUB5 other isoform, or with tags, fused parts or gaps T344D): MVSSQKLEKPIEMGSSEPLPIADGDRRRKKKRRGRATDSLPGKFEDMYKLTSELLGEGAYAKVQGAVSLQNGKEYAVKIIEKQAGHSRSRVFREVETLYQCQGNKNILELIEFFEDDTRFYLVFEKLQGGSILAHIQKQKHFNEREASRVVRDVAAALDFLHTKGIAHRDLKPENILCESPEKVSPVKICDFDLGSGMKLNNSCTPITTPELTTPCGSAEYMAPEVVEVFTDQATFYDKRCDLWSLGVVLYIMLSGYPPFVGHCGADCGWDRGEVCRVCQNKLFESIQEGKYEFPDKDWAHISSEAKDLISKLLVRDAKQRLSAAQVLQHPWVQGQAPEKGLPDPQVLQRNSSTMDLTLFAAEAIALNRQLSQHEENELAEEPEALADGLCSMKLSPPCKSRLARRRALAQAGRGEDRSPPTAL
Structure (SMILES),IC50 (human full-length MKNK1) [nM],IC50 [1] [nM],effect on cell viability [2],inhibition of the secretion of TNF-α ([1]; human PBMCs stimulated with IL-1β)
"COc1cn2nccc2cc1Nc1ncnc2sc3c(c12)CC[C@H](C(=O)N(C)C)C3 [Example 15, (7S)-4-[(6-Methoxypyrazolo[1,5-a]pyridin-5-yl)amino]-N,N-dimethyl-5,6,7,8-tetrahydro[1]benzothieno[2,3-d]pyrimidine-7-carboxamide]",4,10 to 100,,
"CN(C)CCCN(C)C(=O)[C@H]1CCc2c(sc3ncnc(Nc4ccn5nccc5c4)c23)C1 [Example 27, (7S)—N-[3-(Dimethylamino)propyl]-N-methyl-4-(pyrazolo[1,5-a]pyridin-5-ylamino)-5,6,7,8-tetrahydro[1]benzothieno[2,3-d]pyrimidine-7-carboxamide]",13,≥ 100,,
"CN(C)C1CCN(C(=O)[C@H]2CCc3c(sc4ncnc(Nc5ccn6nccc6c5)c34)C2)CC1 [Example 32, [4-(Dimethylamino)piperidin-1-yl][(7S)-4-(pyrazolo[1,5-a]pyridin-5-ylamino)-5,6,7,8-tetrahydro[1]benzothieno[2,3-d]pyrimidin-7-yl]methanone]",25,10 to 100,,
"CN(CCN)C(=O)[C@H]1CCc2c(sc3ncnc(Nc4ccn5nccc5c4)c23)C1 [Example 39, (7S)—N-(2-Aminoethyl)-N-methyl-4-(pyrazolo[1,5-a]pyridin-5-ylamino)-5,6,7,8-tetrahydro[1]benzothieno[2,3-d]pyrimidine-7-carboxamide]",41,≥ 100,,
"CN(C)[C@H]1CCN(C(=O)[C@H]2CCc3c(sc4ncnc(Nc5ccn6nccc6c5)c34)C2)C1 [Example 41, [(3S)-3-(Dimethylamino)pyrrolidin-1-yl][(7S)-4-(pyrazolo[1,5-a]pyridin-5-ylamino)-5,6,7,8-tetrahydro[1]benzothieno[2,3-d]pyrimidin-7-yl]methanone]",11,10 to 100,no effect,inhibition of the secretion of TNF-α; also recorded: inhibits the secretion of TNF-α in a dose dependent manner
"CN(C)CCCN(C)C(=O)[C@H]1CCc2c(sc3ncnc(Nc4cc5ccnn5cc4Cl)c23)C1 [Example 51, (7S)-4-[(6-Chloropyrazolo[1,5-a]pyridin-5-yl)amino]-N-[3-(dimethylamino)propyl]-N-methyl-5,6,7,8-tetrahydro[1]benzothieno[2,3-d]pyrimidine-7-carboxamide]",5,10 to 100,,
"CN(C)CCN(C)C(=O)[C@H]1CCc2c(sc3ncnc(Nc4cc5ccnn5cc4Cl)c23)C1 [Example 53, (7S)-4-[(6-Chloropyrazolo[1,5-a]pyridin-5-yl)amino]-N-[2-(dimethylamino)ethyl]-N-methyl-5,6,7,8-tetrahydro[1]benzothieno[2,3-d]pyrimidine-7-carboxamide]",9,≥ 100,,
"CN(C)C1CN(C(=O)[C@H]2CCc3c(sc4ncnc(Nc5cc6ccnn6cc5Cl)c34)C2)C1 [Example 54, (7S)-4-[(6-Chloropyrazolo[1,5-a]pyridin-5-yl)amino]-5,6,7,8-tetrahydro[1]benzothieno[2,3-d]pyrimidin-7-yl[3-(dimethylamino)azetidin-1-yl]methanone]",11,10 to 100,,
"CN1CCN(C(=O)[C@H]2CCc3c(sc4ncnc(Nc5cc6ccnn6cc5Cl)c34)C2)CC1 [Example 65, (7S)-4-[(6-Chloropyrazolo[1,5-a]pyridin-5-yl)amino]-5,6,7,8-tetrahydro[1]benzothieno[2,3-d]pyrimidin-7-yl(4-methylpiperazin-1-yl)methanone]",5,10 to 100,,
"COc1cn2nccc2cc1Nc1ncnc2sc3c(c12)CC[C@H](C(=O)NC(C)C)C3 [Example 85, (7S)-4-[(6-Methoxypyrazolo[1,5-a]pyridin-5-yl)amino]-N-(propan-2-yl)-5,6,7,8-tetrahydro[1]benzothieno[2,3-d]pyrimidine-7-carboxamide]",4,1 to 10,,
"COc1cn2nccc2cc1Nc1ncnc2sc3c(c12)CC[C@H](C(=O)N(C)CC(F)F)C3 [Example 95, (7S)—N-(2,2-Difluoroethyl)-4-[(6-methoxypyrazolo[1,5-a]pyridin-5-yl)amino]-N-methyl-5,6,7,8-tetrahydro[1]benzothieno[2,3-d]pyrimidine-7-carboxamide]",2,10 to 100,,
"COc1cn2nccc2cc1Nc1ncnc2sc3c(c12)CC[C@H](C(=O)N1CC(C#N)C1)C3 [Example 98, 1-((7S)-4-[(6-Methoxypyrazolo[1,5-a]pyridin-5-yl)amino]-5,6,7,8-tetrahydro[1]benzothieno[2,3-d]pyrimidin-7-ylcarbonyl)azetidine-3-carbonitrile]",1,≥ 100,,
"COc1cn2nccc2cc1Nc1ncnc2sc3c(c12)CC[C@H](C(=O)N1CC(C)(O)C1)C3 [Example 100, (3-Hydroxy-3-methylazetidin-1-yl)(7S)-4-[(6-methoxypyrazolo[1,5-a]pyridin-5-yl)amino]-5,6,7,8-tetrahydro[1]benzothieno[2,3-d]pyrimidin-7-ylmethanone]",< 1,1 to 10,,
"COc1cn2nccc2cc1Nc1ncnc2sc3c(c12)CC[C@H](C(=O)N1CC(N(C)C)C1)C3 [Example 102, [3-(Dimethylamino)azetidin-1-yl](7S)-4-[(6-methoxypyrazolo[1,5-a]pyridin-5-yl)amino]-5,6,7,8-tetrahydro[1]benzothieno[2,3-d]pyrimidin-7-ylmethanone]",2,10 to 100,,
"COc1cn2nccc2cc1Nc1ncnc2sc3c(c12)CC[C@H](C(=O)N(C)CCO)C3 [Example 103, (7S)—N-(2-Hydroxyethyl)-4-[(6-methoxypyrazolo [1,5-a]pyridin-5-yl)amino]-N-methyl-5,6,7,8-tetrahydro[1]benzothieno[2,3-d]pyrimidine-7-carboxamide]",3,1 to 10,,
"COCCN(C)C(=O)[C@H]1CCc2c(sc3ncnc(Nc4cc5ccnn5cc4OC)c23)C1 [Example 104, (7S)—N-(2-Methoxyethyl)-4-[(6-methoxypyrazolo[1,5-a]pyridin-5-yl)amino]-N-methyl-5,6,7,8-tetrahydro[1]benzothieno[2,3-d]pyrimidine-7-carboxamide]",1,1 to 10,,
"COc1cn2nccc2cc1Nc1ncnc2sc3c(c12)CC[C@H](C(=O)N1CC[C@@H](N(C)C)C1)C3 [Example 106, [(3R)-3-(Dimethylamino)pyrrolidin-1-yl](7S)-4-[(6-methoxypyrazolo[1,5-a]pyridin-5-yl)amino]-5,6,7,8-tetrahydro[1]benzothieno[2,3-d]pyrimidin-7-ylmethanone]",< 1,1 to 10,,
"COc1cn2nccc2cc1Nc1ncnc2sc3c(c12)CC[C@H](C(=O)N1CCN(C)CC1)C3 [Example 113, (7S)-4-[(6-Methoxypyrazolo[1,5-a]pyridin-5-yl)amino]-5,6,7,8-tetrahydro[1]benzothieno[2,3-d]pyrimidin-7-yl(4-methylpiperazin-1-yl)methanone]",1,10 to 100,,
"COc1cn2nccc2cc1Nc1ncnc2sc3c(c12)CC[C@H](C(=O)N1CCOCC1)C3 [Example 116, (7S)-4-[(6-Methoxypyrazolo[1,5-a]pyridin-5-yl)amino]-5,6,7,8-tetrahydro[1]benzothieno[2,3-d]pyrimidin-7-yl(morpholin-4-yl)methanone]",1,10 to 100,,
"COc1cn2nccc2cc1Nc1ncnc2sc3c(c12)CC[C@H](C(=O)N1CCOC[C@@H]1C)C3 [Example 125, (7S)-4-[(6-Methoxypyrazolo[1,5-a]pyridin-5-yl)amino]-5,6,7,8-tetrahydro[1]benzothieno[2,3-d]pyrimidin-7-yl[(3S)-3-methylmorpholin-4-yl]methanone]",1,≥ 100,,
